Test results taken from patent publication US6673940B1, “Compositions and methods relating to cyclic compounds that undergo nucleotide base pair-specific interactions with double-stranded nucleic acids” (California Institute of Technology, priority 1999, dated 2004).

Columns and labels:
[1] = system: 5′-AGTACT-3′ site on 229 bp restriction fragment of pJT8; experiment: Quantitative DNase I footprint titration, 5′-AGTACT-3′ site; type: binding; conditions: for equilibrium association constant Ka at 5′-AGTACT-3′: 10 mM Tris•HCl, 10 mM KCl, 10 mM MgCl2, 5 mM CaCl2, pH 7.0, 22° C., match site for (3), single base pair mis-match for (4)
Protocol: (§1) FIGS. 8A and 8B depict the results quantitative DNase I footprint titration experiments with (a) cyclo-(Γ-Im-Py-Py-Py-(R)^H^2^Nγ-Im-Py-Py-Py) (3) and (b) cyclo-(γ-Im-Py-Py-Py(R)^H^2^Nγ-Py-Py-Py-Py) (4) on the 3′-end labeled 229-bp restriction fragment of pJT8. Lane 1, intact DNA control; lane 2, A reaction; lane 3, DNase I standard, lanes 4-13, 5 pM, 10 pM, 20 pM, 50 pM, 100 pM, 1 nM, 2 nM, 5 nM, and 10 nM of the respective polyamide. The 5′-AGTACT-3′ and 5′-AGTATT-3′ match and mis-match sites for each polyamide were analyzed and are shown on the right side of the respective autoradiograms. All reactions contained 20 kcpm of radiolabeled restriction fragment, 10 mM Tris•HCI (pH 7.0), 10 mM KC1, 10 mM MgCl2, and 5 mM CaCl2.
(§2) As controls, the binding affinities and sequence specificities of the Im-Py-Py-Py-β-Dp (1) unlinked 2:1 dimer and a hairpin analog 1m-Py-Py-Py-(R)^H,Nγ-Im-Py-Py-Py-C3-OH (2) were also studied. An EDTA analogue, cyclo-(γ-Im-Py-Py-Py-(R)^EDTA-FE(II)γ-Py-Py-Py-Py-) (4-E•Fe(II)) was constructed to confirm the binding orientation of cyclic polyamide (4) at its 5′-AGTATT-3′ match and 5′-AGTACT-3′ single base pair mismatch site. All polyamides were synthesized by solid phase methods (see Baird, et al., J. Am. Chem. Soc., vol. 118:6141 (1996), and U.S. Ser. No. 08/607,078 for a description of solid phase synthesis methods for non-cyclic polyamides). Polyamide purity and identity was confirmed by H NMR, MALDI-TOF MS, and analytical HPLC. Precise binding site sizes were determined by MPE•Fe(II) footprinting (see Van Dyke, et al., Proc. Natl. Acad. Sci. U.S.A., vol. 79:5470 (1982), and Van Dyke and Dervan, Science, vol. 225:1122 (1984)), and binding orientation and stoichiometry confirmed by affinity cleaving experiments. See Taylor, et al., Tetrahedron, vol.40:457 (1984), and Dervan, P. B., Science, vol. 232:464 (1986). Equilibrium association constants (Ka) of the polyamides for their respective match and mis-match binding sites were determined by quantitative DNase I footprint titration, as described by Brenowitz, et al., Methods Enzymol., vol. 130:132 (1986), Brenowitz, et al., Proc. Natl. Acad. Sci. U.S.A., vol 83:8462 (1986), and Senear, et al., Biochemistry, vol. 25:7344 (1986).
Quantitative DNase I footprint titrations (10 mm Tris•HCI, 10 mM KCl, 10 MM MgCl2 and 5 mM CaCl2 pH 7.0 and 22° C.) were performed to determine the equilibrium association constants (Ka) of Im-Py-Py-Py-β-Dp (1), Im-Py-Py-Py-(R)^H,NγIm-Py-Py-Py-OH (2), cyclo-(γ-Im-Py-Py-Py-(R)^H,Nγ-Im-Py-Py-Py) (3), and cyclo-(γ-Im-Py-Py-Py-(R)^H,Nγ-Py-Py-Py-Py-) (4) for the 6 bp match and mis-match sites. The results for (3) and (4) are depicted in FIG. 8.

[2] = system: 5′-TGTTA-3′ dsDNA target sequence; conditions: Cho et al. 1995; cited from earlier work
[3] = system: 229 base pair DNA restriction fragment from the plasmid pJT8 (5′-AGTATT-3′ and 5′-AGTACT-3′ sites); experiment: Affinity cleavage experiments; type: binding; conditions: 100 nM; 20 mM HEPES pH 7.3, 200 mM NaCl, 1 μM Fe(II), 22° C.
Protocol: FIGS. 6A and 6B show the results of affinity cleaving experiments using cyclo-(γ-Im-Py-Py-Py-(R)^EDTA-Fe(II)γ-Py-Py-Py-Py) (4-E•Fe(II)) on the (a) 3′- and (b) 5′-^32P-labeled 229 bp restriction fragment of pJT8. The match and single mis-match sites 5′-AGTATT-3′ and 5′-AGTACT-3′ are shown on the right side of the autoradiograms. The lanes of each gel are described as follows lane 1, intact DNA (control); lane 2, A reaction; lanes 3-7, 100 pM, 1 nM, 10 nM, and 100 nM, and 1 μM polyamide, respectively. All lanes contain 15 kcpm of either 3′- or 5′-radiolabeled DNA, 20 mM HEPES buffer (pH 7.3), 200 mM NaCl, 50 μg/ml glycogen, 5 mM DTT, 1 μM Fe(II), pH 7.0, and were run at 22° C.
FIGS. 7A-7C illustrate the synthesis of cyclo-(γ-Im-Py-Py-Py(R)^EDTA•Fe(II)γPy-Py-Py-Py) (4-E•Fe(II)) from cyclo-(γ-Im-Py-Py-Py-(R)^H2^Nγ-Py-Py-Py-Py) (4) by: (i) EDTA dianhydride (DMSO/NMP, DIEA, 55° C., 15 min); (ii) 0.1 M NaOH (55° C., 10 min). […] Bar heights are proportional to the relative cleavage intensities at each base pair. Shaded and non-shaded circles denote Im and Py carboxamides, respectively. The boxed Fe denotes the EDTA•Fe(II) cleavage moiety. […]

[4] = system: 229 base pair restriction fragment of pJT8 (5′-AGTACT-3′ and 5′-AGTATT-3′ sites); experiment: MPE•Fe(II) footprinting; type: binding; conditions: 25 mM HEPES pH 7.3, 200 mM NaCl, 22°; for MPE•Fe(II) footprinting: binding at match site: 10 nM polyamide
Protocol: FIG. 5 illustrates the 229 bp restriction fragment with the relative positions of the match and single base pair mis-match sequences indicated for two 8-ring cyclic polyamides, cyclo-(γ-Im-Py-Py-Py-(R)^H2^Nγ-Im-Py-Py-Py) (3) and cyclo-(γ-Im-Py-Py-Py-(R)^H2^Nγ-Py-Py-Py-Py) (4). MPE•Fe(II) protection patterns of 10 nM cyclo-(γ-Im-Py-Py-Py-(R)^H2^Nγ-Im-Py-Py-Py) (3) and 10 nM cyclo-(γ-Im-Py-Py-Py-(R)^H2^Nγ-Py-Py-Py-Py) (4) are shown by the bar graphs. Bar heights are proportional to the relative protection from cleavage at each base pair. Binding sites determined by MPE•Fe(II) footprinting and quantitated by DNase I footprint titrations are boxed. Autoradiograms of MPE•Fe(II) footprinting experiments using cyclo-(γ-Im-Py-Py-Py-(R)^H^2^Nγ-Im-Py-Py-Py) (3) (left) and cyclo-(γ-Im-Py-Py-Py-(R)^H^2^Nγ-Py-Py-Py-Py) (4) (right) on the 3′ ^32P-labeled 229 bp restriction fragment of pJT8. 5′-AGTATT-3′ and 5′-AGTACT-3′ sites are shown adjacent to the auto radiograms. Lane 1, intact control; lane 2, MPE•Fe(II) reaction; lane 3, A reaction standard; lanes 4-8: 100 pM; 1 nM; 10 nM; 100 nM; and […] polyamide, respectively. All lanes contain 15 kcpm of either 3′ or 5′-radiolabeled DNA, 25 mM HEPES buffer (pH 7.3), 200 mM NaCl, […] glycogen, 5 mM DTT, 0.5 mM MPE•Fe(II), and were run at 22° C.
as §2, with “25:7344 (1986). […]” for “25:7344 (1986).”

[5] = system: 5′-AGTATT-3′ site on 229 bp restriction fragment of pJT8; experiment: Quantitative DNase I footprint titration, 5′-AGTATT-3′ site; type: binding; conditions: for equilibrium association constant Ka at 5′-AGTATT-3′: 10 mM Tris•HCl, 10 mM KCl, 10 mM MgCl2, 5 mM CaCl2, pH 7.0, 22° C., match site for (4), single base pair mis-match for (3)
Protocol: as §1
as §2, with “130:132 (1986), Brenowitz, et al., Proc. Natl. Acad. Sci. U.S.A., vol 83:8462 (1986), and Senear, et al., Biochemistry, vol. 25:7344 (1986).” left out

Substance	increase in dsDNA binding affinity relative to unlinked, dimeric polyamide (1) ([1]; 5′-AGTACT-3′ match site)	specificity for match sequence versus single base pair mismatch sites [2]	equilibrium association constant Ka at 5′-AGTACT-3′ [1] [M⁻¹]	MPE•Fe(II) footprinting: binding at match site [4]	MPE•Fe(II) footprinting: binding at single base pair mismatch site [4]	equilibrium association constant Ka at 5′-AGTATT-3′ [5] [M⁻¹]	also measured
Im-Py-Py-Py-(R)^H2Nγ-Im-Py-Py-Py-OH [polyamide 2, reference compound]	428 fold						lower affinity than previously described hairpin Im-Py-Py-Py-γ-Im-Py-Py-Py-β-Dp [1]: 4 fold; lower sequence specificity than previously described hairpin Im-Py-Py-Py-γ-Im-Py-Py-Py-β-Dp [1]: 5
Im-Py-Py-γ-Py-Py-Py-Dp		20 fold					
cyclo-(Im-Py-Py-γ-Py-Py-Py-γ)		4-17 fold					concentration at which the five base pair target 5′-TGTTA-3′ is bound [2]: subnanomolar; higher affinity relative to hairpin analog Im-Py-Py-γ-Py-Py-Py-Dp [2]: 40 fold
cyclo-(γ-Im-Py-Py-Py-(R)^EDTA•Fe(II)γ-Py-Py-Py-Py-) [4-E•Fe(II)]							affinity cleavage pattern at 5′-AGTACT-3′ single base pair mis-match site [3]: minor cleavage loci located 3′ and 5′ adjacent to the single base pair mis-match 5′-AGTACT-3′ site; affinity cleavage pattern at 5′-AGTATT-3′ match site [3]: major cleavage locus proximal to the 3′ side of the 5′-AGTATT-3′ match sequence
cyclo-(γ-Im-Py-Py-Py-(R)^H2Nγ-Im-Py-Py-Py) [polyamide 3]	3,600 fold		7.6e+10	bound to its designated 6 bp match sites	detected only at much higher polyamide concentrations	1.3e+09	affinity enhancement relative to hairpin polyamide (2) ([1]; 5′-AGTACT-3′ match site): 8 fold; specificity for match 5′-AGTACT-3′ over single base pair mis-match 5′-AGTATT-3′ ([1]; ratio of Ka values): 55 fold
cyclo-(γ-Im-Py-Py-Py-(R)^H2Nγ-Py-Py-Py-Py) [polyamide 4]			4.2e+08	bound to its designated 6 bp match sites	protected its targeted match site 5′-AGTATT-3′ and the single base pair mismatch site 5′-AGTACT-3′	3.1e+09	preference for match 5′-AGTATT-3′ versus single base pair mis-match 5′-AGTACT-3′ ([5]; ratio of Ka values): 7 fold
